Data as given in patent publication US20230201124A1, “LUBRICANT FOR PHARMACEUTICALS AND NUTRACEUTICALS” (JRS Pharma GmbH & Co. KG, priority 2021, published 2023).

Assays:
[1] = Tablet hardness versus compression force of lubricated tablets; type: physicochemical; details: for direction of change in tablet hardness: Example 8: lowest level/shortest blend time versus highest level/longest blend time
Description: Blends consisting of five separate levels of each lubricant type were prepared, with the lubricant blending time set for up to 60 minutes. After the addition of lubricant to the ibuprofen-MCC premix and the initiation of blending, a portion of each blend (enough to make a representative number of tablets) was withdrawn at each of 5 intervals (5, 15, 30, 45 and 60 minutes). […]
Tablet hardnesses and ejection forces were measure for each variant.

[2] = Lubricant-API stability of 1:1 aspirin-lubricant blends by NIR spectra; type: physicochemical; details: all tested storage conditions, 2 months
Excerpt: Example 9 is a study which examined the lubricant-API stability of rice bran wax, in comparison with magnesium stearate. Aspirin was chosen as a model API for the study. Magnesium stearate is known to interact unfavorably with aspirin. Aspirin also has a known tendency to convert to salicylic acid in the presence of moisture.
Aspirin and lubricant were ground together at a 1:1 ratio by weight with a glass mortar and pestle, then portioned into three vials which were labeled for room temperature (ambient) storage or for storage closed or open in a stability chamber at 40° C. and 75% RH. Near-IR (NIR) spectra were obtained periodically over two months of storage under these three different conditions.
FIG. 22 is an NIR spectra of the study components of Example 9, and provides the following depictions: aspirin (close dash), magnesium stearate (far dash), rice bran wax (solid) and salicylic acid (dotted). Near IR spectra were obtained on a Metrohm 6500 RCA (Rapid Content Analyzer) reflectance NIR (JRS #1219) and a standard normal variate (SNV) pre-processing routine was used to normalize the spectra for comparison.

[3] = Example 8: lowest level/shortest blend time versus highest level/longest blend time (1.0%, 60 min), at each compression force

| Molecule | tablet hardness ([1]; Example 8: 1% lubricant, 60 minute blend, FIG. 18) | drop in tablet hardness ([1]; Example 8: 15 kN compaction force, 0.125%/5 min versus 1.0%/60 min, FIG. 19) | tablet hardness ([1]; Example 8: highest lubricant level (1.0%), 5 minute blend, FIG. 17) | direction of change in tablet hardness [1] | drop in tablet hardness [1, 3] | interaction between lubricant and aspirin [2] |
| --- | --- | --- | --- | --- | --- | --- |
| magnesium stearate | softest tablets | ~16 N | lower tablet hardness values than sodium stearyl fumarate and hydrogenated vegetable oil | drop in tablet hardness | 11-20 N | interacts with aspirin |
| CCCCCCCCCCCCCCCCCCOC(=O)/C=C/C(=O)[O-].[Na+] [Pruv®, sodium stearyl fumarate] | – | – | – | drop in tablet hardness | < 3 N | – |
